According to patent US20240287076A1, “COMPOUNDS FOR TARGETING DEGRADATION OF BRUTON'S TYROSINE KINASE” (BIOGEN MA INC., priority 2021, published 2024):

What follows are compounds tested against T1, BTK (Homo sapiens, UniProt Q06187) (assay: BTK degradation assay using the HiBiT Method (Nano-Glo HiBiT Lytic Assay, GM01501.3 cells)). Conditions: HiBiT Degradation on GM01501.3 BTK @ 6 hours.
T1 construct: The GM01501.3 cell line endogenously expresses BTK with a HiBiT fusion tag via CRISPR knock-in at its C-terminal region; endogenous in cells; host or cells: GM01501.3 (GM01501 cells engineered by CRISPR knock-in of HiBiT at the BTK locus)
T1 sequence (Q06187 whole entry, the tested form may be a part): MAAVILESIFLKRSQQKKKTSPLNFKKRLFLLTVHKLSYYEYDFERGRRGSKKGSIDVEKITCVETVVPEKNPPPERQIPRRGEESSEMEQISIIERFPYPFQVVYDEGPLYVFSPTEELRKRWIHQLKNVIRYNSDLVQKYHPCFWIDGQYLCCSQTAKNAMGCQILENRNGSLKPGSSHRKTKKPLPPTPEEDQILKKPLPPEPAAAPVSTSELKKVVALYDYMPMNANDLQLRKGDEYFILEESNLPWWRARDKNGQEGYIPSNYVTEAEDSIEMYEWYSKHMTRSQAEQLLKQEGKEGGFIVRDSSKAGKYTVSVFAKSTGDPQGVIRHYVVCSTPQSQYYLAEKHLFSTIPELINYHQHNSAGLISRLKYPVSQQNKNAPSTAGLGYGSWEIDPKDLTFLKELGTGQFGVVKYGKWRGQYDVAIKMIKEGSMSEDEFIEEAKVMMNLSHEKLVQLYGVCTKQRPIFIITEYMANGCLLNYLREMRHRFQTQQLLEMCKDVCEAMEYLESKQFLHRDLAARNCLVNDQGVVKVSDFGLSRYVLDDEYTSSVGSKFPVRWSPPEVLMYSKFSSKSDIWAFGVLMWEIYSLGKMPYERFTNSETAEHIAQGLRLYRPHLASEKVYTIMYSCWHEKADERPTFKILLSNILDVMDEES
Assay type: cell-based
Procedure: Selected compounds were tested in a BTK degradation assay using the HiBiT Method. Park Memorial Institute (RPM1) 1640 Medium with phenol red, L-Glutamine, Sodium Pyruvate, and fetal bovine serum (FBS) were purchased from Gibco (Grand Island, NY, USA). Nano-Glo® HiBiT Lytic Assay System was purchased from Promega (Madison, WI, USA). GM01501 cells were obtained from the NIGMS Human Genetic Cell Repository at the Coriell Institute for Medical Research. The GM01501.3 cell line endogenously expresses BTK with a HiBiT fusion tag via CRISPR knock-in at its C-terminal region. It was engineered by electroporation with the Neon Transfection System (Themo Fisher Scientific), according to manufacturer indications. Electroporation conditions: 1 pulse of 1,350 V for 30 ms for 0.5×10_6 cells. Cell culture flasks and 384-well microplates were acquired from VWR (Radnor, PA, USA). BTK degradation was evaluated by quantification of luminescent signal using Nano-Glo® HiBiT Lytic Assay kit. Test compounds were added to the 384-well plate from a top concentration of 10 μM with 11 points, half log titration in duplicates. GM01501.3 cells were added into 384-well plates at a cell density of 10,000 cells per well in a total volume of 30 μl. The plates were kept at 37° C. with 5% CO2 for 6 hours. Negative control wells included cells treated with DMSO only and positive control wells included only growing media, without Nano-Glo® HiBiT Lytic reagent. After a 6-hour incubation, Nano-Glo® HiBiT Lytic Assay reagent was added to the cells following manufacturer indications. Luminescence was acquired on EnVision™ Multilabel Reader (PerkinElmer, Santa Clara, CA, USA). […] “++++” represents a DC50 value of less than 100 nM. “+++” represents a DC50 value of 100 nM-500 nM. “++” represents a DC50 value of 500 nM-1000 nM. “+” represents a DC50 value of greater than 1000 nM.

DC50 | Structure (SMILES)
< 100 nM | Cc1cc(-c2ncnn3cc(-c4ccc(CN5CCC(c6ccc(NC7CCC(=O)NC7=O)cc6)CC5)cc4)cc23)ccc1CNC(=O)c1noc(C(C)(C)C)n1 (racemic) [Example 1, 5-tert-butyl-N-[[4-[6-[4-[[4-[4-[(2,6-dioxo-3-piperidyl)amino]phenyl]-1-piperidyl]methyl]phenyl]pyrrolo[2,1-f][1,2,4]triazin-4-yl]-2-methyl-phenyl]methyl]-1,2,4-oxadiazole-3-carboxamide]
< 100 nM | CC(C)(C)c1nc(C(=O)NCc2ccc(-c3ncnn4cc(CCCCN5CCC(c6ccc(C7(C)CCC(=O)NC7=O)cc6)CC5)cc34)cc2F)no1 (single isomer, unassigned) [Example 141, 5-tert-butyl-N-[[2-fluoro-4-[6-[4-[4-[4-(3-methyl-2,6-dioxo-3-piperidyl)phenyl]-1-piperidyl]butyl]pyrrolo[2,1-f][1,2,4]triazin-4-yl]phenyl]methyl]-1,2,4-oxadiazole-3-carboxamide]
< 100 nM | CO[C@H]1CN(CCc2cc3c(-c4ccc(CNC(=O)c5noc(C(C)(C)C)n5)c(C)c4)ncnn3c2)CC[C@H]1c1ccc2c(N3CCC(=O)NC3=O)nn(C)c2c1 (single isomer, unassigned) [Example 262]
< 100 nM | Cc1cc(-c2ncnn3cc(CCN4CC[C@H](c5ccc6c(N7CCC(=O)NC7=O)nn(C)c6c5)C4)cc23)ccc1CNC(=O)c1noc(C(C)(C)C)n1 (single isomer, unassigned) [Example 265]
< 100 nM | Cc1cc(-c2ncnn3cc(CCN4CC[C@@H](c5ccc6c(N7CCC(=O)NC7=O)nn(C)c6c5)C4)cc23)ccc1CNC(=O)c1noc(C(C)(C)C)n1 (single isomer, unassigned) [Example 266]
< 100 nM | Cc1cc(-c2ncnn3cc(CC[C@@H](F)CN4CCC(c5ccc(C6CCC(=O)NC6=O)cc5)CC4)cc23)ccc1CNC(=O)c1noc(C(C)(C)C)n1 (single isomer, unassigned) [Example 286]
< 100 nM | Cc1cc(-c2ncnn3cc(CC[C@@H](F)CN4CCN(c5ccc(C6CCC(=O)NC6=O)cn5)CC4)cc23)ccc1CNC(=O)c1noc(C(C)(C)C)n1 (single isomer, unassigned) [Example 287]
< 100 nM | Cc1cc(-c2ncnn3cc(OCCCN4CCC[C@@H](c5ccc6c(N7CCC(=O)NC7=O)nn(C)c6c5)C4)cc23)ccc1CNC(=O)c1noc(C(C)(C)C)n1 (single isomer, unassigned) [Example 292]
< 100 nM | Cc1cc(-c2ncnn3cc(-c4ccc(CN5CCC(c6ccc(NC7CCC(=O)NC7=O)cc6)CC5)cc4)cc23)ccc1CNC(=O)c1noc(C(C)(C)C)n1 (single isomer, unassigned; isomer 1) [Example 2, 5-tert-butyl-N-[[4-[6-[4-[[4-[4-[(2,6-dioxo-3-piperidyl)amino]phenyl]-1-piperidyl]methyl]phenyl]pyrrolo[2,1-f][1,2,4]triazin-4-yl]-2-methyl-phenyl]methyl]-1,2,4-oxadiazole-3-carboxamide isomer 1]
< 100 nM | Cc1cc(-c2ncnn3cc(-c4ccc(CN5CCC(c6ccc(NC7CCC(=O)NC7=O)cc6)CC5)cc4)cc23)ccc1CNC(=O)c1noc(C(C)(C)C)n1 (single isomer, unassigned; isomer 2) [Example 3, 5-tert-butyl-N-[[4-[6-[4-[[4-[4-[(2,6-dioxo-3-piperidyl)amino]phenyl]-1-piperidyl]methyl]phenyl]pyrrolo[2,1-f][1,2,4]triazin-4-yl]-2-methyl-phenyl]methyl]-1,2,4-oxadiazole-3-carboxamide isomer 2]
< 100 nM | Cc1cc(-c2ncnn3cc(-c4ccc(CN5CCC(c6ccc(C7CCC(=O)NC7=O)cc6)CC5)cc4)cc23)ccc1CNC(=O)c1noc(C(C)(C)C)n1 (stereo not drawn) [Example 4, 5-tert-butyl-N-[[4-[6-[4-[[4-[4-(2,6-dioxo-3-piperidyl)phenyl]-1-piperidyl]methyl]phenyl]pyrrolo[2,1-f][1,2,4]triazin-4-yl]-2-methyl-phenyl]methyl]-1,2,4-oxadiazole-3-carboxamide]
< 100 nM | Cc1cc(-c2ncnn3cc(-c4ccc(CN5CCC(c6ccc(NC7CCC(=O)NC7=O)cc6)CC5(C)C)cc4)cc23)ccc1CNC(=O)c1noc(C(C)(C)C)n1 (stereo not drawn) [Example 5, 5-tert-butyl-N-[[4-[6-[4-[[4-[4-[(2,6-dioxo-3-piperidyl)amino]phenyl]-2,2-dimethyl-1-piperidyl]methyl]phenyl]pyrrolo[2,1-f][1,2,4]triazin-4-yl]-2-methyl-phenyl]methyl]-1,2,4-oxadiazole-3-carboxamide]
< 100 nM | Cc1cc(-c2ncnn3cc(-c4ccc(CN5C6CCC5CC(c5ccc(NC7CCC(=O)NC7=O)cc5)C6)cc4)cc23)ccc1CNC(=O)c1noc(C(C)(C)C)n1 (stereo not drawn) [Example 6, 5-tert-butyl-N-[[4-[6-[4-[[3-[4-[(2,6-dioxo-3-piperidyl)amino]phenyl]-8-azabicyclo[3.2.1]octan-8-yl]methyl]phenyl]pyrrolo[2,1-f][1,2,4]triazin-4-yl]-2-methyl-phenyl]methyl]-1,2,4-oxadiazole-3-carboxamide]
< 100 nM | Cc1cc(-c2ncnn3cc(-c4ccc(CN5CCCC(c6ccc(NC7CCC(=O)NC7=O)cc6)C5)cc4)cc23)ccc1CNC(=O)c1noc(C(C)(C)C)n1 (stereo not drawn) [Example 7, 5-tert-butyl-N-[[4-[6-[4-[[3-[4-[(2,6-dioxo-3-piperidyl)amino]phenyl]-1-piperidyl]methyl]phenyl]pyrrolo[2,1-f][1,2,4]triazin-4-yl]-2-methyl-phenyl]methyl]-1,2,4-oxadiazole-3-carboxamide]
100 to 500 nM | Cc1cc(-c2ncnn3cc(-c4ccc(CN5CCCC(c6ccc(C7CCC(=O)NC7=O)cc6)C5)cc4)cc23)ccc1CNC(=O)c1noc(C(C)(C)C)n1 (stereo not drawn) [Example 8, 5-tert-butyl-N-[[4-[6-[4-[[3-[4-(2,6-dioxo-3-piperidyl)phenyl]-1-piperidyl]methyl]phenyl]pyrrolo[2,1-f][1,2,4]triazin-4-yl]-2-methyl-phenyl]methyl]-1,2,4-oxadiazole-3-carboxamide]
< 100 nM | Cc1cc(-c2ncnn3cc(-c4ccc(CN5CCC(c6ccc(C7CCC(=O)NC7=O)cc6F)CC5)cc4)cc23)ccc1CNC(=O)c1noc(C(C)(C)C)n1 (stereo not drawn) [Example 9, 5-tert-butyl-N-[[4-[6-[4-[[4-[4-(2,6-dioxo-3-piperidyl)-2-fluoro-phenyl]-1-piperidyl]methyl]phenyl]pyrrolo[2,1-f][1,2,4]triazin-4-yl]-2-methyl-phenyl]methyl]-1,2,4-oxadiazole-3-carboxamide]
< 100 nM | Cc1cc(-c2ncnn3cc(-c4ccc(CN5CCC(c6c(F)cc(C7CCC(=O)NC7=O)cc6F)CC5)cc4)cc23)ccc1CNC(=O)c1noc(C(C)(C)C)n1 (stereo not drawn) [Example 10, 5-tert-butyl-N-[[4-[6-[4-[[4-[4-(2,6-dioxo-3-piperidyl)-2,6-difluoro-phenyl]-1-piperidyl]methyl]phenyl]pyrrolo[2,1-f][1,2,4]triazin-4-yl]-2-methyl-phenyl]methyl]-1,2,4-oxadiazole-3-carboxamide]
< 100 nM | Cc1cc(-c2ncnn3cc(-c4ccc(CN(C)CCCc5ccc(NC6CCC(=O)NC6=O)cc5)cc4)cc23)ccc1CNC(=O)c1noc(C(C)(C)C)n1 (stereo not drawn) [Example 11, 5-tert-butyl-N-[[4-[6-[4-[[3-[4-[(2,6-dioxo-3-piperidyl)amino]phenyl]propyl-methyl-amino]methyl]phenyl]pyrrolo[2,1-f][1,2,4]triazin-4-yl]-2-methyl-phenyl]methyl]-1,2,4-oxadiazole-3-carboxamide]
